Experimental data as given in patent US20180318383A1, “PEPTIDE HAVING NEURONAL LOSS PREVENTION AND REGENERATION EFFECTS, AND COMPOSITION CONTAINING SAME” (GEMVAX & KAEL CO., LTD., priority 2015, published 2018).

How the values were obtained:
neuronal apoptosis = test: Oxygen-glucose deprivation (OGD), in vitro model of ischemic stroke; format: cell-based
NSCs [1] = test: Oxidative mitochondrial DNA damage (8-OHdG ELISA); format: cell-based, rat; conditions: 20 μM Aβ25-35 + PEP1
Protocol: The oxidative DNA damage in the mitochondria was observed using an 8-OHdG ELISA kit. The mitochondria DNA was obtained using a genomic DNA isolation kit. 8-OHdG monoclonal antibodies were added to samples and a control group, and then corresponding HRP-attached secondary antibodies were added thereto. The samples were quantified using 8-OHdG and observed by measuring absorbance at 450 nm.

NSCs [2] = test: ATP assay; format: cell-based, rat; conditions: 20 μM Aβ25-35 + PEP1
Excerpt: An ATP concentration was observed using an ATP determination kit and evaluated by an ELISA reader.

NSCs [3] = test: NSC differentiation in bFGF-free N2 medium (immunostaining); format: cell-based, rat; conditions: Aβ25-35 increased GFAP-positive and decreased NeuN-positive cells
Protocol: NSC differentiation was induced by changing the cell culture medium to a bFGF (10 ng/ml)-free N2 medium, and the medium was exchanged daily.
Immunostaining was carried out to confirm intracellular expression and locations. For immunostaining, the following antibodies were used: Ki67 (1:100 Abcam), rabbit anti-doublecortin (1 mg/mL; Abcam), rabbit anti-glial fibrillary acidic protein (GFAP) (1:5000; Abcam), rabbit anti-Tuj1 (1 mg/mL; Abcam), mouse anti-GalC (1 mg/mL; Millipore), and rabbit anti-HMGB1 (1:100; Cell Signaling Technology).
However, in a large number of GFAP-positive cells and NeuN-positive cells, such immune responses were increased after differentiation.

GalC = GalC expression in 3XTg-AD mice (western blotting, immunostaining); format: in vivo; conditions: hippocampus and whole brain; s.c. three times a week for two months; vs control and Donepezil, same amount
Protocol: (§1) To test the efficacy of PEP1 on AD, AD transgenic mice (3XTg-AD) were purchased from Jackson Laboratory. Genetic characteristics of the transgenic mice are as follows: B6; 129-Psen1tm1Mpm Tg(APPSwe, tauP301L)1Lfa/Mmjax. […] One week after mice were confirmed as pregnant, new mice were delivered and weaned for 3 weeks. Two weeks later, mature mice were obtained.
(§2) During the preliminary breeding and the entire period of the experiment, a temperature was maintained at 23±2° C. and a relative humidity was maintained at 60±10%, and then the mice were raised under a 12-hour dark/light cycle. Experimental animals were divided into five groups, and each group included 10 animals. The divided experimental groups are as follows. […]
(§3) The PEP1, physiological saline, donepezil and scramble peptide were subcutaneously injected at each concentration three times a week for two months from the age of 12 months, and then two months after the injection, cognitive/memory behavior tests (passive avoidance test and Y maze test) were performed to examine a degree of improvement in cognitive function and memory function. After the brain was extracted to separate the hippocampus, the amounts of amyloid beta in the hippocampus and the whole brain, and the amounts of an amyloid beta oligomer and NFT generated by tau hyperphosphorylation were determined by western blotting and immunostaining. […]

DCX = DCX expression in 3XTg-AD mice (western blotting, immunostaining); format: in vivo; conditions: hippocampus and whole brain; s.c. three times a week for two months; vs control and Donepezil, same amount
Protocol: as §1, §2, §3

## EARPALLTSRLRFIPK (homo sapiens) [PEP1, hTERT-derived peptide consisting of 16 amino acids, telomerase location [611-626]]
Neuronal apoptosis
  neuronal apoptosis caused by oxygen-glucose deprivation (OGD): inhibiting neuronal apoptosis
NSCs [1]
  oxidative mitochondrial DNA damage: effectively decreased
NSCs [2]
  ATP level: significantly restored
NSCs [3]
  NSC differentiation into GFAP-positive and NeuN-positive cells: the opposite effect was observed
GalC
  Galc: increased
DCX
  DCX: increased
